Measured values published in article PMC4770715, “LIM kinase inhibitors disrupt mitotic microtubule organization and impair tumor cell proliferation” (Oncotarget, 2015).

Key:
Test in all cases: biochemical
Set-up in all cases: KINOMEscan active-site competition binding, percent of control (100 = no competition)
Details in all cases: competition binding, percent control
PIK3CD = PIK3CD (Homo sapiens, UniProt O00329)
Source text: (§1) Given the potential for the use of LIMK inhibitors as cancer chemotherapeutics, a high-throughput drug discovery and medicinal chemistry program was undertaken. Details of the screening methodology and description of initial hit matter were described in [38]. […] Details of their chemical synthesis are described in Charles et al.. […] These and additional physiochemical parameters are in Supplemental Table 5. […] Kinases inhibited >25% to 50% have yellow circles, 51% to 75% have orange circles, and >76% have red circles. In each case, the size of the circle is proportional to percentage inhibition. LIMK1 and LIMK2 positions are indicated in blue. Illustration reproduced courtesy of Cell Signaling Technology, Inc. (www.cellsignal.com). B. CRT0105950 structure and kinome selectivity mapping as described above. C.

VRK2 = VRK2 (Homo sapiens, UniProt Q86Y07)
Source text: as §1

[1] = target: T1, RSK3(Kin.Dom.1-N-terminal) (Homo sapiens, UniProt Q15349)
T1 construct: gene RPS6KA2; Kin.Dom.1-N-terminal
Source text: as §1

PDPK1 = PDPK1 (Homo sapiens, UniProt O15530)
Source text: as §1

[2] = target: T2, ABL1(Q252H)-nonphosphorylated (Homo sapiens, UniProt P00519, Q252H)
T2 construct: nonphosphorylated
Source text: as §1

ROCK2 = ROCK2 (Homo sapiens, UniProt O75116)
Chain of ROCK2 (O75116 whole entry): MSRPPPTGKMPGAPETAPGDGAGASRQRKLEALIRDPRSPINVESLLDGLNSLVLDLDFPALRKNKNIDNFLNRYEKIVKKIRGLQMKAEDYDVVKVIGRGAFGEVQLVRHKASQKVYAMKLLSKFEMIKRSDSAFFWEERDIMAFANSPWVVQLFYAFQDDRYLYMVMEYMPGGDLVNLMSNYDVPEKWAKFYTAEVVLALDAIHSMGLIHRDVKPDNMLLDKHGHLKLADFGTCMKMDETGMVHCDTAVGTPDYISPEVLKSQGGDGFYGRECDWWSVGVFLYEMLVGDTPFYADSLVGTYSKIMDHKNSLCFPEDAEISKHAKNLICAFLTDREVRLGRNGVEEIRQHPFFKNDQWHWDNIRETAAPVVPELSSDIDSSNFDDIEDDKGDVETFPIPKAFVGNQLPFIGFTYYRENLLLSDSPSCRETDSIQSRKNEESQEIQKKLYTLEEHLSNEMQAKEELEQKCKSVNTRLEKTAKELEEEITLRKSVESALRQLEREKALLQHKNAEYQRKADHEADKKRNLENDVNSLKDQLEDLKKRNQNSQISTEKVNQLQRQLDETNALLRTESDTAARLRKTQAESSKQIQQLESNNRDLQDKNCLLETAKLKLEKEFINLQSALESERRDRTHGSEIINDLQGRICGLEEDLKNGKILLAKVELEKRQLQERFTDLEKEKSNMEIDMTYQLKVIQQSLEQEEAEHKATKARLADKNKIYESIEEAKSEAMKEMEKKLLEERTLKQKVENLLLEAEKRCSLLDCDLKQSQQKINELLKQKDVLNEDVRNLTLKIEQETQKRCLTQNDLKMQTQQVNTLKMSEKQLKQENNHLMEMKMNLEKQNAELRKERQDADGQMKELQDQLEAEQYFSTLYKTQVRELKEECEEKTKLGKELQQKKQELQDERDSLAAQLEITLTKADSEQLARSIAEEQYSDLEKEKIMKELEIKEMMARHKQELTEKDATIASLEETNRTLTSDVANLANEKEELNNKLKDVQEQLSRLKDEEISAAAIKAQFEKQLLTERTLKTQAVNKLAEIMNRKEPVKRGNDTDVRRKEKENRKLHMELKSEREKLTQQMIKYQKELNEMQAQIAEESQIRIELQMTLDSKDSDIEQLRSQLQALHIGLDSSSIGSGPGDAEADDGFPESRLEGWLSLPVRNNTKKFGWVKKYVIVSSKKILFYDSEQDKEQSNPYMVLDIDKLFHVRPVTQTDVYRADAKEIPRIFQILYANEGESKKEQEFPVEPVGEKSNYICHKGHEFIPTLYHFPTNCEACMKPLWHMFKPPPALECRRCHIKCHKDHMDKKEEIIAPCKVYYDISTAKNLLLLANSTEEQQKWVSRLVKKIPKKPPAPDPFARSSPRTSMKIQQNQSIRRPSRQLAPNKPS
Source text: as §1

ITK = ITK (Homo sapiens, UniProt Q08881)
Source text: as §1

CAMK4 = CAMK4 (Homo sapiens, UniProt Q16566)
Chain of CAMK4 (Q16566 whole entry): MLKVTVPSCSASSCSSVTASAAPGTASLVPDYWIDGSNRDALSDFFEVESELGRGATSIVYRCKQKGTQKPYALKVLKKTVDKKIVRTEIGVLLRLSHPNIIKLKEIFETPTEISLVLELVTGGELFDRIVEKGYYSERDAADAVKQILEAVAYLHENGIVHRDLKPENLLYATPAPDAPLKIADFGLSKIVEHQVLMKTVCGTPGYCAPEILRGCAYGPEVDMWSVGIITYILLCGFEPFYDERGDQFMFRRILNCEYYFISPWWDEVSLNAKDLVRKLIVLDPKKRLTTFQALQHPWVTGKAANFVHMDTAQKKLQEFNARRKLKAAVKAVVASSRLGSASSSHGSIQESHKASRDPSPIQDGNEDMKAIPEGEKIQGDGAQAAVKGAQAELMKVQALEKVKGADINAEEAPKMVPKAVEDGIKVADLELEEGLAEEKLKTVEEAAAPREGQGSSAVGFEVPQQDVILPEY
Source text: as §1

RET = RET (Homo sapiens, UniProt P07949)
Chain of RET (P07949 whole entry): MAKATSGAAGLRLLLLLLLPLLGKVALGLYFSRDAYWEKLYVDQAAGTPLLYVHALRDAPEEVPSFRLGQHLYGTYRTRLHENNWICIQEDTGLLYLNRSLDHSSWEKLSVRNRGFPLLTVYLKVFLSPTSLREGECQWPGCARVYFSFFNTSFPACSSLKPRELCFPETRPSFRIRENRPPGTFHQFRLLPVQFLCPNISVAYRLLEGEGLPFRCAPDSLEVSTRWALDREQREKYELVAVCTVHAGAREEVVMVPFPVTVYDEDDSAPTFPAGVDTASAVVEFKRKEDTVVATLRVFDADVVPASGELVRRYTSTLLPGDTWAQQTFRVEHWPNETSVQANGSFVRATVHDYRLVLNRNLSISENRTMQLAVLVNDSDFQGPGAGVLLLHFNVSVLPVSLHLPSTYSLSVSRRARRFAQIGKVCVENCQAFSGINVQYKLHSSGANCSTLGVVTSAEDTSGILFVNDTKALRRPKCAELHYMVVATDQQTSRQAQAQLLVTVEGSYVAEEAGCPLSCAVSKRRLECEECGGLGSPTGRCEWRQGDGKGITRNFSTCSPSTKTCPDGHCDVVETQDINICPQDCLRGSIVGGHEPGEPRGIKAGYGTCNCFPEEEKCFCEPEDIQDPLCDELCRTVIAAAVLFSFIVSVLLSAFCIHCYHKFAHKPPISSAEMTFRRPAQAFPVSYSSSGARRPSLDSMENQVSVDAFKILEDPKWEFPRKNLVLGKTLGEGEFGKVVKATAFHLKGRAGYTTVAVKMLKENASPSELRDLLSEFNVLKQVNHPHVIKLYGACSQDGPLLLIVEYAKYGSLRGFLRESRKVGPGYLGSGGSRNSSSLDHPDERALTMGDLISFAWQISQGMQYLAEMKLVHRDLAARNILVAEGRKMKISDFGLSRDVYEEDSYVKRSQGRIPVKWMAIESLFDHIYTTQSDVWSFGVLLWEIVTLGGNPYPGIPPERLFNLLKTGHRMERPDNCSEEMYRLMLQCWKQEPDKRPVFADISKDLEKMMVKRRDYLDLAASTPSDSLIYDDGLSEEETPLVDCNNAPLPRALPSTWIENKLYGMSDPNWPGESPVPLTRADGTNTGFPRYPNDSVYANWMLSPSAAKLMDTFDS
Source text: as §1

EPHA7 = EPHA7 (Homo sapiens, UniProt Q15375)
Source text: as §1

MAP3K1 = MAP3K1 (Homo sapiens, UniProt Q13233)
Source text: as §1

DMPK2 = target: T3, DMPK2 (Homo sapiens, UniProt Q6DT37)
T3 construct: gene CDC42BPG
Source text: as §1

FAK = target: T4, FAK (Homo sapiens, UniProt Q05397)
T4 construct: gene PTK2
T4 sequence (Q05397 whole entry): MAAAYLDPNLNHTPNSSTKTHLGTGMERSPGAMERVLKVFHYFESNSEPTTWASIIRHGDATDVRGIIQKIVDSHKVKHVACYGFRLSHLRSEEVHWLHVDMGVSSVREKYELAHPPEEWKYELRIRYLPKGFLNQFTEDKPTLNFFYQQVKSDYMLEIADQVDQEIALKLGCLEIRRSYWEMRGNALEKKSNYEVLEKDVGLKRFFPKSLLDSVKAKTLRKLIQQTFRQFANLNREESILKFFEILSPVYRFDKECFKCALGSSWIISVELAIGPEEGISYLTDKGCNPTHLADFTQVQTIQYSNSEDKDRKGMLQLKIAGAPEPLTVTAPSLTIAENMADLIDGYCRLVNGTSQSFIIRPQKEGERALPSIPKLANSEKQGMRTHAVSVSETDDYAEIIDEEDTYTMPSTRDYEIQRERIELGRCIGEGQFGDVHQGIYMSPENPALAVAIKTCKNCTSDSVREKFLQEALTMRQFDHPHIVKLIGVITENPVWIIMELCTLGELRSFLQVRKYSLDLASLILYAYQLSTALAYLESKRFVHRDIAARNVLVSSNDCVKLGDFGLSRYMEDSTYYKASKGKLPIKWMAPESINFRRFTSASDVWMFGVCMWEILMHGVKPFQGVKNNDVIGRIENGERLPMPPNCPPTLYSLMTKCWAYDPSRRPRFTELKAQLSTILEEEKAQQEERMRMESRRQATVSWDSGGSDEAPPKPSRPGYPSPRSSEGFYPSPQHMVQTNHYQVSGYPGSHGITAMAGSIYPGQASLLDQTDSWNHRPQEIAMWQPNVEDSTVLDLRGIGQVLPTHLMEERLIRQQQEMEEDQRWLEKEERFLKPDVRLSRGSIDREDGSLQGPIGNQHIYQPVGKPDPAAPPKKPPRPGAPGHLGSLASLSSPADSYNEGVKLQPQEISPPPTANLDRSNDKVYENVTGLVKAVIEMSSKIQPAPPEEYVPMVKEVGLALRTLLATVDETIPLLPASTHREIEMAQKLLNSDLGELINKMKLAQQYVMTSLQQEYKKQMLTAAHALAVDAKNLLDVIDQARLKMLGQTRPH
Source text: as §1

ULK2 = ULK2 (Homo sapiens, UniProt Q8IYT8)
Source text: as §1

SRMS = SRMS (Homo sapiens, UniProt Q9H3Y6)
Source text: as §1

RET(M918T) = RET(M918T) (Homo sapiens, UniProt P07949, M918T)
Chain of RET(M918T) (P07949 whole entry M918T): as the sequence (P07949 whole entry) above, with M918T counted along it
Source text: as §1

PDGFRB = PDGFRB (Homo sapiens, UniProt P09619)
Source text: as §1

AAK1 = AAK1 (Homo sapiens, UniProt Q2M2I8)
Source text: as §1

PIM3 = PIM3 (Homo sapiens, UniProt Q86V86)
Source text: as §1

PKN2 = PKN2 (Homo sapiens, UniProt Q16513)
Source text: as §1

CHEK2 = CHEK2 (Homo sapiens, UniProt O96017)
Source text: as §1

MKNK1 = MKNK1 (Homo sapiens, UniProt Q9BUB5)
Source text: as §1

DAPK2 = DAPK2 (Homo sapiens, UniProt Q9UIK4)
Chain of DAPK2 (Q9UIK4 whole entry): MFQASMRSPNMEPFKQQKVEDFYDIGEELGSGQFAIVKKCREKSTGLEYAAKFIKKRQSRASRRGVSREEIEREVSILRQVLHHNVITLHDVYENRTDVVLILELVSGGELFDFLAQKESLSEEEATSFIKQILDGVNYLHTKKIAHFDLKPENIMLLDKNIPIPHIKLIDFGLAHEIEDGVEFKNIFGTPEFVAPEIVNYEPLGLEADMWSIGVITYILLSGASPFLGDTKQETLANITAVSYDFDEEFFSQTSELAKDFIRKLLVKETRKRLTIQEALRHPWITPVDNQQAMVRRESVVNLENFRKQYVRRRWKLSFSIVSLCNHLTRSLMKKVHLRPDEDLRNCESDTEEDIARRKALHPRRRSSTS
Source text: as §1

Structure (SMILES) | remaining binding at 10 µM (PIK3CD) [%] | remaining binding at 10 µM (VRK2) [%] | remaining binding at 10 µM [1] [%] | remaining binding at 10 µM (PDPK1) [%] | remaining binding at 10 µM [2] [%] | remaining binding at 10 µM (ROCK2) [%] | remaining binding at 10 µM (ITK) [%] | remaining binding at 10 µM (CAMK4) [%] | remaining binding at 10 µM (RET) [%] | remaining binding at 10 µM (EPHA7) [%] | remaining binding at 10 µM (MAP3K1) [%] | remaining binding at 10 µM (DMPK2) [%] | remaining binding at 10 µM (FAK) [%] | remaining binding at 10 µM (ULK2) [%] | remaining binding at 10 µM (SRMS) [%] | remaining binding at 10 µM (RET(M918T)) [%] | remaining binding at 10 µM (PDGFRB) [%] | remaining binding at 10 µM (AAK1) [%] | remaining binding at 10 µM (PIM3) [%] | remaining binding at 10 µM (PKN2) [%] | further results
COc1ccc(-c2cnccc2-c2cnc(NC(=O)C(C)C)s2)c(C(F)(F)F)c1 [CRT0105446, N-{5-[3-(4-Methoxy-2-trifluoromethyl-phenyl)-pyridin-4-yl]-hiazol-2-yl}-isobutyramide] | 100 | 95 | 71 | 100 | 83 | 95 | 100 | 98 | 87 | 94 | 88 | 93 | 100 | 100 | 93 | 91 | 51 | 78 | 95 | 96 | remaining binding at 10 µM (CHEK2): 100%; remaining binding at 10 µM (MKNK1): 49%; remaining binding at 10 µM (DAPK2): 87%
Cc1ccc(-c2cnccc2-c2cnc(Nc3ccc(O)cc3)s2)c(Cl)c1 [CRT0105950, 4-{5-[3-(2-Chloro-4-methyl-phenyl)-pyridin-4-yl]-thiazol-2-ylamino}-phenol] | 100 | 72 | 0.15 | 28 | 70 | 77 | 61 | 90 | 1.2 | 83 | 71 | 71 | 33 | 20 | 87 | 0.35 | 1.6 | 51 | 72 | 26 | remaining binding at 10 µM (CHEK2): 55%; remaining binding at 10 µM (MKNK1): 46%; remaining binding at 10 µM (DAPK2): 53%
